Patent US20170190671A1, “BIS(ARYL)CATECHOL DERIVATIVES AS HERBICIDES” (E I DU PONT DE NEMOURS AND COMPANY, priority 2014, published 2017)

Key:
Type in all cases: in vivo
[1] = tested on: Italian ryegrass (Lolium multiflorum); test: Test A postemergence; conditions: Lolium multiflorum, post-emergence, 240 h, 0 to 100 scale, read-out: Plant response rating, Ryegrass, Italian
Procedure, shortened: (§1)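 Visual 0–100 rating (100 = complete control) taken about 10 d post-treatment relative to untreated checks. Preemergence: directed soil spray on sown loam/sand pots. Postemergence: seedlings 2–10 cm, 1–2 leaf. Non-phytotoxic solvent formulation with surfactant.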

[2] = tested on: giant foxtail (Setaria faberii); test: Test A postemergence; conditions: Setaria faberi, post-emergence, 240 h, 0 to 100 scale, read-out: Plant response rating, Foxtail, Giant
Procedure, shortened: as §1

[3] = tested on: pigweed (Amaranthus retroflexus); test: Test A postemergence; conditions: Amaranthus retroflexus, post-emergence, 240 h, 0 to 100 scale, read-out: Plant response rating, Pigweed
Procedure, shortened: as §1

[4] = tested on: wheat (Triticum aestivum); test: Test A postemergence; conditions: Triticum aestivum, post-emergence, 240 h, 0 to 100 scale, read-out: Plant response rating, Wheat
Procedure, shortened: as §1

[5] = tested on: ragweed (common ragweed, Ambrosia elatior); test: Test A postemergence; conditions: Ambrosia artemisiifolia, post-emergence, 240 h, 0 to 100 scale, read-out: Plant response rating, Ragweed
Procedure, shortened: as §1

[6] = tested on: kochia (Kochia scoparia); test: Test A postemergence; conditions: Bassia scoparia, post-emergence, 240 h, 0 to 100 scale, read-out: Plant response rating, Kochia
Procedure, shortened: as §1

[7] = tested on: corn (Zea mays); test: Test A postemergence; conditions: Zea mays, post-emergence, 240 h, 0 to 100 scale
Procedure, shortened: as §1

[8] = tested on: blackgrass (Alopecurus myosuroides); test: Test A postemergence; conditions: Alopecurus myosuroides, post-emergence, 240 h, 0 to 100 scale, read-out: Plant response rating, Blackgrass
Procedure, shortened: as §1

[9] = tested on: galium (catchweed bedstraw, Galium aparine); test: Test A postemergence; conditions: Galium, post-emergence, 240 h, 0 to 100 scale, read-out: Plant response rating, Galium
Procedure, shortened: as §1

[10] = tested on: barnyardgrass (Echinochloa crus-galli); test: Test A postemergence; conditions: Echinochloa crus-galli, post-emergence, 240 h, 0 to 100 scale, read-out: Plant response rating, Barnyardgrass
Procedure, shortened: as §1

[11] = tested on: ragweed (common ragweed, Ambrosia elatior); test: Test C preemergence; conditions: Ambrosia artemisiifolia, pre-emergence, 336 h, scale 0 to 100, read-out: Plant response rating, Ragweed
Procedure, shortened: (§2)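 Seeds in loam-sand soil were treated preemergence, and plants at the 1- to 4-leaf stage (2-18 cm) in peat-based medium were sprayed postemergence, with test chemicals in a non-phytotoxic solvent containing surfactant. After 13-15 days in a greenhouse, response was rated visually against controls from 0 (no effect) to 100 (complete control).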

[12] = tested on: galium (catchweed bedstraw, Galium aparine); test: Test C preemergence; conditions: Galium, pre-emergence, 336 h, scale 0 to 100, read-out: Plant response rating, Galium
Procedure, shortened: as §2

[13] = tested on: rice (Oryza sativa); test: Test B flooded paddy; conditions: Oryza sativa, 336 h; 250 g ai/ha, Flood, 13 to 15 days, scale 0 (no effect) to 100 (complete control); read-out: Plant response rating, Rice
Procedure, shortened: (§3)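 Pots were flooded to 3 cm above the soil surface at treatment, compound applied directly to the paddy water, and that depth held throughout. Plants were kept in a greenhouse for 13 to 15 days, then visually rated against untreated controls.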

[14] = tested on: ducksalad (Heteranthera limosa); test: Test B flooded paddy; conditions: Heteranthera limosa, 336 h; 250 g ai/ha, Flood, 13 to 15 days, scale 0 (no effect) to 100 (complete control); read-out: Plant response rating, Ducksalad
Procedure, shortened: as §3

[15] = tested on: sedge, umbrella (small-flower umbrella sedge, Cyperus difformis); test: Test B flooded paddy; conditions: Cyperus difformis, 336 h; 250 g ai/ha, Flood, 13 to 15 days, scale 0 (no effect) to 100 (complete control); read-out: Plant response rating, Sedge, Umbrella
Procedure, shortened: as §3

[16] = tested on: barnyardgrass (Echinochloa crus-galli); test: Test B flooded paddy; conditions: Echinochloa crus-galli, 336 h; 250 g ai/ha, Flood, 13 to 15 days, scale 0 (no effect) to 100 (complete control); read-out: Plant response rating, Barnyardgrass
Procedure, shortened: as §3

[17] = tested on: Italian ryegrass (Lolium multiflorum); test: Test A preemergence; conditions: Lolium multiflorum, pre-emergence, 240 h, 0 to 100 scale (0 no effect, 100 complete control), read-out: Ryegrass, Italian plant response rating
Procedure, shortened: as §1

[18] = tested on: giant foxtail (Setaria faberii); test: Test A preemergence; conditions: Setaria faberi, pre-emergence, 240 h, 0 to 100 scale (0 no effect, 100 complete control), read-out: Foxtail, Giant plant response rating
Procedure, shortened: as §1

[19] = tested on: pigweed (Amaranthus retroflexus); test: Test A preemergence; conditions: Amaranthus retroflexus, pre-emergence, 240 h, 0 to 100 scale (0 no effect, 100 complete control), read-out: Pigweed plant response rating
Procedure, shortened: as §1

[20] = tested on: ragweed (common ragweed, Ambrosia elatior); test: Test A preemergence; conditions: Ambrosia artemisiifolia, pre-emergence, 240 h, 0 to 100 scale (0 no effect, 100 complete control), read-out: Ragweed plant response rating
Procedure, shortened: as §1

[21] = tested on: kochia (Kochia scoparia); test: Test A preemergence; conditions: Bassia scoparia, pre-emergence, 240 h, 0 to 100 scale (0 no effect, 100 complete control), read-out: Kochia plant response rating
Procedure, shortened: as §1

[22] = tested on: barnyardgrass (Echinochloa crus-galli); test: Test A preemergence; conditions: Echinochloa crus-galli, pre-emergence, 240 h
Procedure, shortened: as §1

N#Cc1cccc(Oc2ncc(Cl)cn2)c1Oc1ccc(Br)cn1 [Compound 15]
pest or weed control at 31 g/ha ([1]; 31 g ai/ha): 0% | pest or weed control at 125 g/ha ([1]; 125 g ai/ha): 50% | pest or weed control at 31 g/ha ([2]; 31 g ai/ha): 20% | pest or weed control at 125 g/ha ([2]; 125 g ai/ha): 90% | pest or weed control at 31 g/ha ([3]; 31 g ai/ha): 100% | pest or weed control at 125 g/ha ([3]; 125 g ai/ha): 100% | plant injury at 31 g/ha ([4]; 31 g ai/ha): 0% | plant injury at 125 g/ha ([4]; 125 g ai/ha): 10% | pest or weed control at 31 g/ha ([5]; 31 g ai/ha): 10% | pest or weed control at 125 g/ha ([5]; 125 g ai/ha): 10% | pest or weed control at 31 g/ha ([6]; 31 g ai/ha): 40% | pest or weed control at 125 g/ha ([6]; 125 g ai/ha): 90% | Corn plant response rating (crop injury, 0 = no effect, 100 = complete kill) at 31 g/ha ([7]; 31 g ai/ha): 10% | Corn plant response rating (crop injury, 0 = no effect, 100 = complete kill) at 125 g/ha ([7]; 125 g ai/ha): 10% | pest or weed control at 31 g/ha ([8]; 31 g ai/ha): 0% | pest or weed control at 125 g/ha ([8]; 125 g ai/ha): 70% | pest or weed control at 31 g/ha ([9]; 31 g ai/ha): 50% | pest or weed control at 125 g/ha ([9]; 125 g ai/ha): 90% | pest or weed control at 31 g/ha ([10]; 31 g ai/ha): 0% | pest or weed control at 125 g/ha ([10]; 125 g ai/ha): 20% | pest or weed control at 31 g/ha ([11]; 31 g ai/ha, preemergence): 30% | pest or weed control at 62 g/ha ([11]; 62 g ai/ha, preemergence): 50% | pest or weed control at 125 g/ha ([11]; 125 g ai/ha, preemergence): 40% | pest or weed control at 16 g/ha ([11]; Preemergence, 16 g ai/ha): 0% | pest or weed control at 31 g/ha ([12]; 31 g ai/ha, preemergence): 100% | pest or weed control at 62 g/ha ([12]; 62 g ai/ha, preemergence): 95% | pest or weed control at 125 g/ha ([12]; 125 g ai/ha, preemergence): 100% | pest or weed control at 16 g/ha ([12]; Preemergence, 16 g ai/ha): 100% | plant injury at 250 g/ha [13]: 0% | pest or weed control at 250 g/ha [14]: 75% | pest or weed control at 250 g/ha [15]: 90% | pest or weed control at 250 g/ha [16]: 0% | pest or weed control at 31 g/ha ([17]; 31 g ai/ha): 0% | pest or weed control at 125 g/ha ([17]; 125 g ai/ha): 10% | pest or weed control at 31 g/ha ([18]; 31 g ai/ha): 60% | pest or weed control at 125 g/ha ([18]; 125 g ai/ha): 100% | pest or weed control at 31 g/ha ([19]; 31 g ai/ha): 80% | pest or weed control at 125 g/ha ([19]; 125 g ai/ha): 100% | pest or weed control at 31 g/ha ([20]; 31 g ai/ha): 0% | pest or weed control at 125 g/ha ([20]; 125 g ai/ha): 0% | pest or weed control at 31 g/ha ([21]; 31 g ai/ha): 90% | pest or weed control at 125 g/ha ([21]; 125 g ai/ha): 100% | pest or weed control at 31 g/ha ([22]; 31 g ai/ha, 0 to 100 scale (0 no effect, 100 complete control), read-out: Barnyardgrass plant response rating): 0% | pest or weed control at 125 g/ha ([22]; 125 g ai/ha, 0 to 100 scale, read-out: Plant response rating, Barnyardgrass): 60%
